The target of series [1] is T1, rat mGlu 1a receptor (Rattus norvegicus, UniProt P23385).
T1 construct: expressed in transfected cells; host or cells: EBNA cells (transient transfection)
Put plainly: [Ca2+]i measurement (FLIPR) on mGlu 1a transfected EBNA cells. Format: cell-based. Particulars: for agonist/antagonist: mode of action at group I mGlu receptor, [Ca2+]i FLIPR assay.

Where [2] appears, read: compounds acting as antagonists, tested against 10 μM glutamate as agonist.

Broadly, the melting point is the temperature, or range, at which the solid turns liquid. By IC50 is commonly meant the concentration needed to halve the response being measured.

T1 sequence (P23385 19-1199): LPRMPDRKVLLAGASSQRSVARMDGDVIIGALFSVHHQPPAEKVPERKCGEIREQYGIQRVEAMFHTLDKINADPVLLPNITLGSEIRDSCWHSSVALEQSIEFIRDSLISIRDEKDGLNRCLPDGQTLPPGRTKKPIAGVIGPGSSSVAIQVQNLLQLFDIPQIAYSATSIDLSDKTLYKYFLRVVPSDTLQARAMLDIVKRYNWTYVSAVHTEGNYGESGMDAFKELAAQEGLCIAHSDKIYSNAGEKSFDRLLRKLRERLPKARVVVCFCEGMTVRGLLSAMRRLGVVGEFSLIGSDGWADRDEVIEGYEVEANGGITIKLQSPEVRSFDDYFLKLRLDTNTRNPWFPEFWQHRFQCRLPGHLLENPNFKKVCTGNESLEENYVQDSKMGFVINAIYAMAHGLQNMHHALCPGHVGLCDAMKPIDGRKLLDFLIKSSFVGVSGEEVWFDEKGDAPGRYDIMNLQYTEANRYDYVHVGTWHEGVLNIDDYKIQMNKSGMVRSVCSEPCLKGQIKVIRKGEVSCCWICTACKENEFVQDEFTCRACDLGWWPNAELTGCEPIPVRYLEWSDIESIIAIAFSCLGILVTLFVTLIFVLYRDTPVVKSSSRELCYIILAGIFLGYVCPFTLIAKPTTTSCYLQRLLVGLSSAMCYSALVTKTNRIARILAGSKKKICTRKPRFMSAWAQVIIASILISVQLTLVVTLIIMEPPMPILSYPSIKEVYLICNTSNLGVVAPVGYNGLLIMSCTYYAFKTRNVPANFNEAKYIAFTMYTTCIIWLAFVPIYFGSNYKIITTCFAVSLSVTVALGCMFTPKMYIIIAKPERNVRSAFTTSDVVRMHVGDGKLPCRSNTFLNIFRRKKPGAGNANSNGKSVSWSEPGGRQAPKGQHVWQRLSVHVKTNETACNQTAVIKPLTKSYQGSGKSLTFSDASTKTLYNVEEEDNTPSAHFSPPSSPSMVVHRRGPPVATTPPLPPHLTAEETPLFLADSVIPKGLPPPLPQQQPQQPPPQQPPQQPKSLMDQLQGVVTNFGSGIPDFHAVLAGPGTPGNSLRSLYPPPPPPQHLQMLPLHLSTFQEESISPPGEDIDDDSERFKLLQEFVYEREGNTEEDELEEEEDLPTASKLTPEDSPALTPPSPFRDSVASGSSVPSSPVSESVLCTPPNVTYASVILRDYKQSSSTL

The compound `CCCCOC(=O)NC(=O)C(c1ccccc1)c1ccccc1` had a melting point of 82 to 84 °C. Same read-out and setting: for `CCOC(=O)NC(=O)C1c2ccccc2Sc2ccccc21` the value was 179 to 182 °C. Still for that read-out and setting: for `O=C(NC(=O)C(c1ccccc1)c1ccccc1)OCCN1CCOCC1` the value was 135 to 137 °C; for `CCCCSC(=O)NC(=O)C(c1ccccc1)c1ccccc1`, 99 °C. The compound `CCOC(=O)NC(=O)C(c1cccc(C)c1)c1ncc(C(F)(F)F)cc1Cl` (centres unmarked) had a melting point of 146 to 147 °C. The same measure, in the same setting: next, `CCOC(=O)NC(=O)C1c2ccccc2Oc2c1cccc2C(F)(F)F` (centres unmarked): 196 to 198 °C; `O=C(NC(=O)C(c1ccccc1)c1ccccc1)C1CC1`: 178 °C. `CCCC(=O)NC(=O)C1c2ccccc2Oc2ccccc21` gave a melting point of 222 °C. For `CCCC(=O)NC(=O)C(c1ccccc1)c1ccccc1`, the melting point is 205 °C. Same read-out and setting: for `CC(C)(C)OC(=O)NC(=O)C(c1ccccc1)c1ccccc1` the value was 160 to 162 °C; for `CCOC(=O)NC(=O)C1c2ccccc2Oc2ccccc21`, 228 °C (dec.). The same measure, in the same setting: next, `CCOC(=O)NC(=O)C1c2ccccc2Oc2ccc(Br)cc21` (racemic): 203 °C.

In the case of `C=CCOC(=O)NC(=O)C(c1ccccc1)c1ccccc1` [Example 3, Diphenylacetyl-carbamic acid allyl ester], the melting point was 118 to 120 °C. Still for that read-out and setting: next, `CC(C)OC(=O)NC(=O)C(c1ccccc1)c1ccccc1` [Example 4, Diphenylacetyl-carbamic acid isopropyl ester]: 122 to 124 °C. On the same count and under the same terms, next, `O=C(NC(=O)C(c1ccccc1)c1ccccc1)OCC1CC1` [Example 10, Diphenylacetyl-carbamic acid cyclopropylmethyl ester]: 108 °C. As for `C=CCOC(=O)NC(=O)C(C)(c1ccccc1)c1ccccc1` [Example 24, (2,2-Diphenyl-propionyl)-carbamic acid allyl ester], the melting point was determined as 89 °C. The same compound came in with a half-inhibitory concentration (IC50) in series [1] (setting [2]) of 2790 nM. On the same counts, the results for `CCCCOC(=O)NC(=O)C(C)(c1ccccc1)c1ccccc1` [Example 25, (2,2-Diphenyl-propionyl)-carbamic acid butyl ester] are 83 °C and 1380 nM. `O=C(Nc1ncco1)C1c2ccccc2Sc2ccccc21` [Example 31, 9H-Thioxanthene-9-carboxylic acid oxazol-2-ylamide]: the melting point is 188 to 191 °C. `CCCCOC(=O)NC(=O)C1c2ccccc2Sc2ccccc21` [Example 32, (9H-Thioxanthene-9-carbonyl)-carbamic acid butyl ester] returned a melting point of 151 to 154 °C. Moreover, the agonist/antagonist result in series [1] is on record as “agonist”. Consider `CCCCC(=O)NC(=O)C(c1ccccc1)c1ccccc1` [Example 43, Pentanoic acid diphenylacetyl-amide], for which the melting point was determined as 83 °C. Consider `COCCc1nnc(NC(=O)C(c2ccccc2)c2ccccc2)o1` [Example 55, N-[5-(2-Methoxy-ethyl)-[1,3,4]oxadiazol-2-yl]-2,2-diphenyl-acetamide], for which the melting point is 114 to 115 °C. On the same count and under the same terms, for `O=C(Nc1nnc(C2CC2)o1)C(c1ccccc1)c1ccccc1` [Example 57, N-(5-Cyclopropyl-[1,3,4]oxadiazol-2-yl)-2,2-diphenyl-acetamide] the value was 159 to 160 °C; for `O=C(Nc1nnc(CC2CC2)o1)C(c1ccccc1)c1ccccc1` [Example 59, N-(5-Cyclopropylmethyl-[1,3,4]oxadiazol-2-yl)-2,2-diphenyl-acetamide], 158 to 159 °C. The same measure, in the same setting: for `CCc1cnc(NC(=O)C(c2ccccc2)c2ccccc2)o1` [Example 63, N-(5-Ethyl-oxazol-2-yl)-2,2-diphenyl-acetamide] the value was 148 to 149 °C. With `Cc1cnc(NC(=O)C(c2ccccc2)c2ccccc2)o1` [Example 65, N-(5-Methyl-oxazol-2-yl)-2,2-diphenyl-acetamide], the melting point was 166 to 168 °C. The compound also showed an IC50 in series [1] (compounds acting as agonists, activation curve) of 400 nM. Besides, the agonist/antagonist result in series [1] is recorded as “agonist”.

Compound “(2,2-Diphenyl-propionyl)-carbamic acid methyl ester [Example 23]” gave an IC50 in series [1] (setting [2]) of 6310 nM. Besides, the agonist/antagonist entry in series [1] is on record as “antagonist”.
